{"source": "patent US20010055569A1", "about": "“Nasal drug delivery composition” (West Pharmaceutical Services Drug Delivery & Clinical …, priority 1998, published 2001)", "experiment": "Solubility of drugs in vegetable oils (castor oil, soybean oil)", "conditions": "for solubility: oil or lipid, thermodynamic from solid", "protocol": "The solubility of flurbiprofen in different vegetable oils was measured by the addition of increasing quantities of the drug to an oil system and determination of the maximum amount that will dissolve by observation of the resultant solution and the onset of a cloudy nature or precipitation.", "note": "Read-outs that look alike come from different tables or passages of the source."}
{"smiles": "CN1CCc2cccc3c2[C@H]1Cc1ccc(O)c(O)c1-3", "note": "[Apomorphine]", "values": [{"measurement": "Solubility in soybean oil", "setting": "room temperature, soybean oil", "result": "<10", "unit": "mg/g"}]}
{"smiles": "COc1ccc2c(c1)c(CC(=O)O)c(C)n2C(=O)c1ccc(Cl)cc1", "note": "[Indomethacin]", "values": [{"measurement": "Solubility in castor oil", "result": ">15 < 20 mg/g"}, {"measurement": "Solubility in soybean oil", "result": "<5", "unit": "mg/g"}]}
{"smiles": "CC(C(=O)O)c1ccc(-c2ccccc2)c(F)c1", "note": "(centres unmarked) [flurbiprofen]", "values": [{"measurement": "solubility", "setting": "castor oil BP", "result": 150, "unit": "mg/mL"}, {"measurement": "solubility", "setting": "soybean oil BP", "result": "< 50", "unit": "mg/mL"}]}
